Results reported in ChEMBL document CHEMBL4138175, “Newly designed organotin(IV) carboxylates with peptide linkage: Synthesis, structural elucidation, physicochemical characterizations and pharmacological investigations” (Eur J Med Chem, 2018).
Converted amounts (≈) assume the structure as drawn. The source made the active and inactive calls. No cut-off for these calls is given here.

Key:
[1] = tested on: NCI-H157; assay: Cytotoxicity against human NCI-H157 cells at 100 uM after 48 hrs by sulforhodamine B assay; format: functional
[2] = tested on: NCI-H157; assay: Cytotoxicity against human NCI-H157 cells at 10 uM after 48 hrs by sulforhodamine B assay; format: functional
[3] = tested on: NCI-H157; assay: Cytotoxicity against human NCI-H157 cells at 1 uM after 48 hrs by sulforhodamine B assay; format: functional
[4] = tested on: NCI-H157; assay: Cytotoxicity against human NCI-H157 cells at 0.1 uM after 48 hrs by sulforhodamine B assay; format: functional
[5] = tested on: BHK-21; assay: Cytotoxicity against golden hamster BHK21 cells at 100 uM after 48 hrs by sulforhodamine B assay; format: cell-based, Mesocricetus auratus; conditions: bhk-21, 48 h
[6] = tested on: BHK-21; assay: Cytotoxicity against golden hamsterBHK21 cells at 10 uM after 48 hrs by sulforhodamine B assay; format: cell-based, Mesocricetus auratus; conditions: hamster, bhk-21, 48 h
[7] = tested on: BHK-21; assay: Cytotoxicity against golden hamster BHK21 cells at 1 uM after 48 hrs by sulforhodamine B assay; format: cell-based, Mesocricetus auratus; conditions: bhk-21, 48 h
[8] = tested on: BHK-21; assay: Cytotoxicity against golden hamster BHK21 cells at 0.1 uM after 48 hrs by sulforhodamine B assay; format: cell-based, Mesocricetus auratus; conditions: bhk-21, 48 h
[9] = tested on: Leishmania major; assay: Antileishmanial activity against Leishmania major promastigotes at 100 uM after 72 hrs by MTT assay relative to control; format: functional
[10] = tested on: Leishmania major; assay: Antileishmanial activity against Leishmania major promastigotes at 10 uM after 72 hrs by MTT assay relative to control; format: functional
[11] = tested on: Leishmania major; assay: Antileishmanial activity against Leishmania major promastigotes at 1 uM after 72 hrs by MTT assay relative to control; format: functional
[12] = tested on: Leishmania major; assay: Antileishmanial activity against Leishmania major promastigotes at 0.1 uM after 72 hrs by MTT assay relative to control; format: functional
[13] = tested on: Klebsiella pneumoniae; assay: Antibacterial activity against Klebsiella pneumoniae assessed as zone of inhibition after 24 to 48 hrs by well diffusion method; format: functional
[14] = tested on: Streptococcus pyogenes; assay: Antibacterial activity against Streptococcus pyogenes assessed as zone of inhibition after 24 to 48 hrs by well diffusion method; format: functional
[15] = tested on: Staphylococcus epidermidis; assay: Antibacterial activity against Staphylococcus epidermidis assessed as zone of inhibition after 24 to 48 hrs by well diffusion method; format: functional
[16] = tested on: Staphylococcus aureus; assay: Antibacterial activity against Staphylococcus aureus assessed as zone of inhibition after 24 to 48 hrs by well diffusion method; format: functional
[17] = tested on: Serratia marcescens; assay: Antibacterial activity against Serratia marcescens assessed as zone of inhibition after 24 to 48 hrs by well diffusion method; format: functional
[18] = tested on: Pseudomonas aeruginosa; assay: Antibacterial activity against Pseudomonas aeruginosa assessed as zone of inhibition after 24 to 48 hrs by well diffusion method; format: functional
[19] = tested on: Escherichia coli; assay: Antibacterial activity against Escherichia coli assessed as zone of inhibition after 24 to 48 hrs by well diffusion method; format: functional
[20] = tested on: Klebsiella pneumoniae; assay: Antibacterial activity against Klebsiella pneumoniae assessed as zone of inhibition by measuring activity index after 24 to 48 hrs by well diffusion method relative to penicillin G; format: functional, organism-based
[21] = tested on: Streptococcus pyogenes; assay: Antibacterial activity against Streptococcus pyogenes assessed as zone of inhibition by measuring activity index after 24 to 48 hrs by well diffusion method relative to tetracycline; format: functional, organism-based
[22] = tested on: Streptococcus pyogenes; assay: Antibacterial activity against Streptococcus pyogenes assessed as zone of inhibition by measuring activity index after 24 to 48 hrs by well diffusion method relative to penicillin G; format: functional, organism-based
[23] = tested on: Streptococcus pyogenes; assay: Antibacterial activity against Streptococcus pyogenes assessed as zone of inhibition by measuring activity index after 24 to 48 hrs by well diffusion method relative to ampicillin; format: functional, organism-based
[24] = tested on: Streptococcus pyogenes; assay: Antibacterial activity against Streptococcus pyogenes assessed as zone of inhibition by measuring activity index after 24 to 48 hrs by well diffusion method relative to amoxicillin; format: functional, organism-based
[25] = tested on: Staphylococcus epidermidis; assay: Antibacterial activity against Staphylococcus epidermidis assessed as zone of inhibition by measuring activity index after 24 to 48 hrs by well diffusion method relative to penicillin G; format: functional, organism-based
[26] = tested on: Staphylococcus epidermidis; assay: Antibacterial activity against Staphylococcus epidermidis assessed as zone of inhibition by measuring activity index after 24 to 48 hrs by well diffusion method relative to ampicillin; format: functional, organism-based
[27] = tested on: Staphylococcus aureus; assay: Antibacterial activity against Staphylococcus aureus assessed as zone of inhibition by measuring activity index after 24 to 48 hrs by well diffusion method relative to tetracycline; format: functional, organism-based
[28] = tested on: Staphylococcus aureus; assay: Antibacterial activity against Staphylococcus aureus assessed as zone of inhibition by measuring activity index after 24 to 48 hrs by well diffusion method relative to penicillin G; format: functional, organism-based
[29] = tested on: Staphylococcus aureus; assay: Antibacterial activity against Staphylococcus aureus assessed as zone of inhibition by measuring activity index after 24 to 48 hrs by well diffusion method relative to ampicillin; format: functional, organism-based
[30] = tested on: Staphylococcus aureus; assay: Antibacterial activity against Staphylococcus aureus assessed as zone of inhibition by measuring activity index after 24 to 48 hrs by well diffusion method relative to amoxicillin; format: functional, organism-based
[31] = tested on: Serratia marcescens; assay: Antibacterial activity against Serratia marcescens assessed as zone of inhibition by measuring activity index after 24 to 48 hrs by well diffusion method relative to penicillin G; format: functional
[32] = tested on: Serratia marcescens; assay: Antibacterial activity against Serratia marcescens assessed as zone of inhibition by measuring activity index after 24 to 48 hrs by well diffusion method relative to ampicillin; format: functional
[33] = tested on: Serratia marcescens; assay: Antibacterial activity against Serratia marcescens assessed as zone of inhibition by measuring activity index after 24 to 48 hrs by well diffusion method relative to amoxicillin; format: functional
[34] = tested on: Pseudomonas aeruginosa; assay: Antibacterial activity against Pseudomonas aeruginosa assessed as zone of inhibition by measuring activity index after 24 to 48 hrs by well diffusion method relative to ampicillin; format: functional, organism-based
[35] = tested on: Escherichia coli; assay: Antibacterial activity against Escherichia coli assessed as zone of inhibition by measuring activity index after 24 to 48 hrs by well diffusion method relative to tetracycline; format: functional
[36] = tested on: NCI-H157; assay: Cytotoxicity against human NCI-H157 cells after 48 hrs by sulforhodamine B assay; format: functional, cell-based
[37] = tested on: BHK-21; assay: Cytotoxicity against golden hamster BHK21 cells after 48 hrs by sulforhodamine B assay; format: cell-based, Mesocricetus auratus; conditions: bhk-21, 48 h
[38] = tested on: HepG2; assay: Cytotoxicity against human HepG2 cells by MTT assay; format: functional, cell-based
[39] = tested on: Agrobacterium tumefaciens; assay: Antitumor activity against Agrobacterium tumefaciens-induced tumor after 21 days by potato disc bioassay technique; format: functional

Question: Which Activity [1] does the source give for `COc1ccc(NC(=O)c2ccccc2C(=O)[O-])c([N+](=O)[O-])c1.[Na+]` here?
Answer: Its Activity is 52.2%.

Question: And the Activity [2]?
Answer: Its Activity is 50.3%.

Question: And the Activity [3]?
Answer: Its Activity is 35.2%.

Question: What about the Activity [4] of the same compound?
Answer: Its Activity is 25.1%.

Question: And the Activity [5]?
Answer: The Activity was 53.5%.

Question: And the Activity [6]?
Answer: The Activity was 48.9%.

Question: And the Activity [7]?
Answer: Its Activity is 44.2%.

Question: And the Activity [8]?
Answer: The Activity was 40.5%.

Question: What about the Activity [9] of the same compound?
Answer: Its Activity is 49.5%.

Question: And the Activity [10]?
Answer: The Activity was 46.3%.

Question: And the Activity [11]?
Answer: The Activity was 40.2%.

Question: What about the Activity [12] of the same compound?
Answer: The Activity was 38.4%.

Question: What about the “inhibition zone (IZ)” value [13] of the same compound?
Answer: Its value is “inactive”.

Question: And the “inhibition zone (IZ)” value [14]?
Answer: The value was “inactive”.

Question: What about the “inhibition zone (IZ)” value [15] of the same compound?
Answer: Its value is “inactive”.

Question: And the “inhibition zone (IZ)” value [16]?
Answer: The value was “inactive”.

Question: And the “inhibition zone (IZ)” value [17]?
Answer: Its value is 7.33 mm.

Question: And the “inhibition zone (IZ)” value [18]?
Answer: Its value is “inactive”.

Question: What about the “inhibition zone (IZ)” value [19] of the same compound?
Answer: The value was 5 mm.

Question: What about the Activity_index [20] of the same compound?
Answer: The Activity_index was “inactive”.

Question: And the Activity_index [21]?
Answer: Its Activity_index is “inactive”.

Question: And the Activity_index [22]?
Answer: The Activity_index was “inactive”.

Question: What about the Activity_index [23] of the same compound?
Answer: The Activity_index was “inactive”.

Question: And the Activity_index [24]?
Answer: The Activity_index was “inactive”.

Question: What about the Activity_index [25] of the same compound?
Answer: Its Activity_index is “inactive”.

Question: What about the Activity_index [26] of the same compound?
Answer: Its Activity_index is “inactive”.

Question: What about the Activity_index [27] of the same compound?
Answer: Its Activity_index is “inactive”.

Question: What about the Activity_index [28] of the same compound?
Answer: The Activity_index was “inactive”.

Question: What about the Activity_index [29] of the same compound?
Answer: The Activity_index was “inactive”.

Question: What about the Activity_index [30] of the same compound?
Answer: The Activity_index was “inactive”.

Question: What about the Activity_index [31] of the same compound?
Answer: Its Activity_index is 0.92.

Question: What about the Activity_index [32] of the same compound?
Answer: Its Activity_index is 0.92.

Question: And the Activity_index [33]?
Answer: The Activity_index was 1.22.

Question: And the Activity_index [34]?
Answer: The Activity_index was “inactive”.

Question: And the Activity_index [35]?
Answer: Its Activity_index is 2.5.

Question: And the Activity [36]?
Answer: Its Activity is “Dose-dependent effect”.

Question: What about the Activity [37] of the same compound?
Answer: The Activity was “Dose-dependent effect”.

Question: Which results are given for `CC[C@]1(O)C[C@H]2CN(CCc3c([nH]c4ccccc34)[C@@](C(=O)OC)(c3cc4c(cc3OC)N(C=O)[C@H]3[C@@](O)(C(=O)OC)[C@H](OC(C)=O)[C@]5(CC)C=CCN6CC[C@]43[C@@H]65)C2)C1` [VINCRISTINE]?
Answer: Activity [1]: 74.5%; Activity [2]: 72.6%; Activity [3]: 70.9%; Activity [4]: 69.8%; Activity [5]: 74.5%; Activity [6]: 72.6%; Activity [7]: 70.9%; Activity [8]: 69.8%; Activity [36]: Dose-dependent effect; Activity [37]: Dose-dependent effect; IC50 [38]: 0.042 µg/mL (≈ 0.0509 µM); Activity [39]: 100%
